Measured values from PMC9917184, “Synthesis and Biological Evaluation of Potential Oncoimmunomodulator Agents” (International Journal of Molecular Sciences, 2023).
Like-named read-outs stand apart in the source and are kept apart here.

What was measured:
A-549 = A-549 cell viability in co-culture with Jurkat T cells (flow cytometry count); format: cell-based, human; details: 24 h; for viability at 100 µM: Homo sapiens, A549, A-549/Jurkat T co-culture, IFN-γ stimulated, read-out: percentage of living A-549 cells relative to non-treated co-cultures
Outline: (§1)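 HT-29, MCF-7 or A-549 cells in IFN-γ (10 ng/mL) medium were co-cultured with 5 × 10^5 Jurkat T cells per well and 100 µM compound (DMSO control) for 24 h. Jurkat cells from the supernatant and trypsinized cancer cells were PFA-fixed and counted by flow cytometry. Living cells were expressed as % of untreated co-culture.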

c-Myc = experiment: Immunofluorescence microscopy of c-Myc in MCF-7; format: cell-based, human; details: MCF-7, 24 h of treatment
Description: We also observed the effect of triazole derivatives 3, 5 and 7 on both targets in MCF-7 by immunofluorescence microscopy (see Figure 2). We stained both targets with anti-PD-L1 conjugated to AlexaFluor®647 (red in Figure 2), as well as anti-c-Myc conjugated to fluorescein (green in Figure 2), to determine the amount of both targets. The nucleus was stained with Hoechst (blue in Figure 2).
We observed that in the DMSO control, c-Myc was located in the nucleus of the cell and the nucleus membrane nearby, and PD-L1 was preferentially positioned in the membrane or cytosol, favoring the contact between surrounding cells.
For immunofluorescence microscopy of the microtubule network, […] cells were plated on cover glass and incubated with the selected compounds. Cells were then fixed in 4% formaldehyde (in PBS pH 7.4) for 20 min at room temperature and permeabilized with PBS-Triton X-100 0.5% for 1 min at room temperature. Direct immunostaining was carried out for 1 h at room temperature with FITC Mouse monoclonal Anti-c-Myc (ab223913) and Alexa Fluor® 647 Rabbit monoclonal Anti-PD-L1 (ab215251). Then, cells were washed in PBS, and cover glasses were mounted with a drop of ProLong® antifade solution (Invitrogen). The cytoskeleton was imaged by a confocal laser scanning microscope (CLSM) Leica SP5 with a Leica inverted microscope, equipped with 20x objective. Each image was recorded with the CLSM’s spectral mode selecting specific domains of the emission spectrum. The FITC fluorophore was excited at 488 nm with an argon laser, and its fluorescence emission was collected between 496 nm and 535 nm.

Jurkat T cells = experiment: Jurkat T cell viability in co-culture with cancer cells (flow cytometry count); format: cell-based; details: Homo sapiens, 24 h, read-out: percentage of living Jurkat cells relative to non-treated co-cultures
Outline: as §1

PD-L1 = PD-L1 (Homo sapiens, UniProt Q9NZQ7); experiment: Total PD-L1 relative quantification by flow cytometry in cancer cell lines; format: cell-based; parameters: Alexa Fluor® 647 Rabbit monoclonal Anti-PD-L1 (ab215251); endogenous in cells; host or cells: HT-29; details: 24 h, total PD-L1 relative to negative control (DMSO)
Sequence of PD-L1 (Q9NZQ7 19-290): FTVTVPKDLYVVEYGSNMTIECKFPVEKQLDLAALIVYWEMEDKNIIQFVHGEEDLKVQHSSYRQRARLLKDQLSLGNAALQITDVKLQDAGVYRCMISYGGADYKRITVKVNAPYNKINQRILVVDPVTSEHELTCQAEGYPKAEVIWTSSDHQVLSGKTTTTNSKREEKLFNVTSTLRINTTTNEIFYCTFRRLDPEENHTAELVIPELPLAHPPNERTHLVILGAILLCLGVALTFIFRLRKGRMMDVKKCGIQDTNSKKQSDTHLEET

membrane PD-L1 = molecular target: T1, membrane PD-L1 (Homo sapiens, UniProt Q9NZQ7); experiment: Membrane PD-L1 relative quantification by flow cytometry in cancer cells co-cultured with Jurkat T cells; format: cell-based; details: 24 h; for remaining activity at 100 µM / inhibition at 100 µM: Jurkat; for remaining activity at 100 µM: relative to non-treated co-cultures, read-out: % PDL1 (membrane); for inhibition at 100 µM: read-out: membrane PD-L1 inhibition rate
T1 construct: Alexa Fluor® 647 Rabbit monoclonal Anti-PD-L1 (ab215251); endogenous in cells; host or cells: HT-29, MCF-7, A-549 (A17: MCF-7 only; A14: IFN-gamma-stimulated cancer cells co-cultured with Jurkat T cells)
T1 sequence (Q9NZQ7 19-290): as above
Outline: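 Interferon γ-stimulated human cancer cells co-cultured with Jurkat T cells and treated 24 h with compounds at 100 μM. Cells then fixed in 4% paraformaldehyde and co-stained with Alexa Fluor 647 anti-PD-L1 and FITC anti-VEGFR-2. Membrane levels quantified together by flow cytometry.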

HT-29 = HT-29 cell viability in co-culture with Jurkat T cells (flow cytometry count); format: cell-based, human; details: 24 h; for viability at 100 µM: Homo sapiens, HT-29/Jurkat T co-culture, IFN-γ stimulated, read-out: percentage of living HT-29 cells relative to non-treated co-cultures
Outline: as §1

[1] = A549 co-cultured with Jurkat T cells
[2] = HT29 co-cultured with Jurkat T cells
[3] = MCF7 co-cultured with Jurkat T cells
[4] = MCF-7 co-cultured with Jurkat T cells
[5] = co-cultured with Jurkat T cells, 100 μM

remaining activity at 100 µM (PD-L1; A549, A-549, 100 µM) | remaining activity at 100 µM (PD-L1; HT-29, 100 µM) | remaining activity at 100 µM (PD-L1; MCF7, MCF-7, 100 µM) | remaining activity at 100 µM (membrane PD-L1; [1]) | remaining activity at 100 µM (membrane PD-L1; [2]) | remaining activity at 100 µM (membrane PD-L1; [3]) | inhibition at 100 µM (membrane PD-L1; [4]) | inhibition at 100 µM (membrane PD-L1; A-549 co-cultured with Jurkat T cells) | inhibition at 100 µM (membrane PD-L1; HT-29 co-cultured with Jurkat T cells) | membrane PD-L1 inhibition rate (membrane PD-L1; MCF-7 co-cultured with Jurkat T cells, 100 μM) | SMILES | viability at 100 µM (A-549) | c-Myc localisation (confocal images) (c-Myc) | viability at 100 µM (Jurkat T cells; A-549/Jurkat T co-culture) | viability at 100 µM (Jurkat T cells; HT-29/Jurkat T co-culture) | viability at 100 µM (Jurkat T cells; MCF-7/Jurkat T co-culture) | viability at 100 µM (HT-29) | inhibition rate of A-549 cell viability (A-549; [5]) | inhibition rate of HT-29 cell viability (HT-29; [5])
70 ± 8% | 68 ± 10% | 77 ± 3% | 103 ± 3% | 105 ± 3% | 97 ± 33% | – | – | – | – | Cc1c(COc2ccc(CN3CCCCC3C(=O)O)cc2Br)cccc1-c1ccccc1 (centres unmarked) [BMS-8, reference compound] | 111 ± 9% | not altered | 99 ± 9% | 148 ± 11% | 53 ± 27% | 34 ± 5% | – | –
70 ± 16% | 38 ± 1% | 87 ± 1% | 115% | 153 ± 17% | 43 ± 6% | 60 to 70% | – | – | – | COc1ccc(C(OCCc2ccc(CCn3cc(-c4cccc(Br)c4)nn3)cc2)(c2ccccc2)c2ccc(OC)cc2)cc1 [Compound 5, 1-(4-(2-(bis(4-methoxyphenyl)(phenyl)methoxy)ethyl)phenethyl)-4-(3-bromophenyl)-1H-1,2,3-triazole] | 105 ± 3% | aggregated around the nucleus membrane | 93 ± 9% | 48 ± 1% | 96 ± 8% | 68 ± 3% | – | –
86 ± 20% | 45 ± 7% | 80 ± 4% | 73 ± 6% | 89 ± 4% | 50 ± 14% | 60 to 70% | – | – | – | COc1ccc(C(OCCc2ccc(CCn3cc(-c4ccccc4Br)nn3)cc2)(c2ccccc2)c2ccc(OC)cc2)cc1 [Compound 7, 1-(4-(2-(bis(4-methoxyphenyl)(phenyl)methoxy)ethyl)phenethyl)-4-(2-bromophenyl)-1H-1,2,3-triazole] | 100 ± 4% | aggregated in the nucleus of the cells | 79 ± 11% | 70 ± 8% | 94 ± 12% | 52 ± 6% | – | –
58 ± 10% | 47 ± 1% | 108 ± 13% | 77 ± 4% | 80 ± 2% | 52 ± 9% | 60 to 70% | ~20% | ~20% | half | COc1ccc(C(OCCc2ccc(CCn3cc(-c4ccc(Br)cc4)nn3)cc2)(c2ccccc2)c2ccc(OC)cc2)cc1 [Compound 3, 1-(4-(2-(bis(4-methoxyphenyl)(phenyl)methoxy)ethyl)phenethyl)-4-(4-bromophenyl)-1H-1,2,3-triazole] | 75 ± 7% | preferentially in the nucleus of the cells | 86 ± 4% | 108 ± 33% | 75 ± 10% | 111 ± 5% | active | not active
